From publication PMC5427923, “A novel CCR2 antagonist inhibits atherogenesis in apoE deficient mice by achieving high receptor occupancy” (Scientific Reports, 2017)

How the values were obtained:
[1] = test system: apoE−/− mice; assay: Body weight, cholesterol, liver toxicity markers and plasma cytokines in treated apoE−/− mice; assay type: in vivo, mouse
Experimental: To determine the effect of the CCR2 antagonist on atherosclerotic lesion development, mice were fed a Western type diet, containing 0.25% cholesterol and 15% cocoabutter (SDS, Sussex, UK) throughout the experiment starting two week before surgery. Carotid artery plaque formation was induced by perivascular collar placement as described previously[46] and from the time of surgery, the mice received daily intraperitoneal injections containing 15a (5 mg/kg/day) or vehicle control (n = 9–10 per group). During the experiment, total body weight and weight gain were measured. Serum total cholesterol levels were determined using an enzymatic colorimetric assay according to manufacturer’s protocol (Roche Diagnostics). Precipath (standardized serum; Boehringer Mannheim, Germany) was used as an internal standard. Plasma cytokine levels were measured by ELISA according to manufacturer’s protocol (BD Biosciences). Blood was collected weekly via tail cut. Total cell count and cellular differentiation patterns in blood were analyzed using an automated XT-2000iV veterinary hematology analyzer (Sysmex Europe GMBH, Norderstedt, Germany). After erythrocyte lysis, blood leukocyte suspensions were stained for surface markers, after which their expression was determined by FACS analysis (FACS Canto, BD Biosciences). After 4 weeks of lesion development, the animals were anaesthetized and blood was collected. After in situ perfusion through the left cardiac chamber, the carotid arteries and hearts were harvested.
Macrophage content of the lesions in carotid arteries and aortic roots was stained using a rat monoclonal MOMA2 antibody (1:1000, Serotec, Kidlington, Oxford, UK). Macrophage positive areas were analyzed using computer-assisted colour-gated analysis, and related to the total intimal surface area (Leica QWin). Liver cryosections of 10 µm thick were prepared and subsequently stained with hematoxylin-eosin to analyze liver morphology, which was assessed using a Leica DMRE microscope (Leica Ltd., Cambridge, England).
Total RNA was extracted from homogenized liver tissue with the guanidium thiocyanate-phenol-bromochloropropane extraction method. RNA concentration, purity and integrity were examined by nanodrop (Nanodrop® Technologies). RNA was reverse transcribed by M-MuLV reverse transcriptase (RevertAid, MBI Fermentas, Landsmeer, The Netherlands) and used for quantitative analysis of the mouse genes ALT, AST, apoH and GC with an ABI PRISM 7700 Taqman apparatus (Applied Biosystems). For qPCR primer pairs refer to Supplementary Table S1.

[2] = 15a plasma levels by LC-MS after a single intraperitoneal dose; assay type: in vivo; conditions: apoE−/−, mouse
Experimental: To measure plasma concentrations of 15a over time, Western type diet fed mice were injected with 5 mg/kg 15a, after which blood samples were taken at fixed time points (1, 2, 6 and 24 hours after injection). Blood samples were processed as described below under “Measurement of 15a plasma levels”. The final dose of 5 mg/kg/day was based on a pilot study in which two different doses (1.5 and 5 mg/kg/day) were tested using leucocyte migration towards the peritoneal cavity as a read-out. […] In addition, the dose of 5 mg/kg was also based on a previous study with TAK-779[38], in which a dose of 5 mg/kg was used.
Blood plasma from mice was analyzed by LC-MS to determine 15a plasma levels. 20 μL of internal standard (compound 15b, a diastereomer of 15a[24]) and 20 μL of solvent C (20% (v/v) Acetonitrile and 0.1% (v/v) TFA in LC-MS water) were first mixed with 20 µL of plasma. A calibration curve from 2 to 200 ng/ml of 15a was prepared using solvent C. Calibration samples were prepared as normal samples using blanc plasma and calibration solution instead of solvent C. Aliquots of 40 µL of 1% TFA were added to the samples and mixed well. After addition of 900 µL of ethyl acetate, mixing was performed for 5 minutes at a titramax plate shaker (Heidolph, Swabach, Germany). Samples were then centrifuged at 15,000 × g during 10 minutes and 800 µL of the supernatant was evaporated in a vacuum centrifuge (Labconco, Kansas City, Missouri). The sample was reconstituted by mixing with 10 µL of acetonitrile, followed by addition of 40 µL solvent C. After a second centrifugation at 15,000 × g for 10 minutes, 35 µL of supernatant were transferred to LC vials and inserted into the LC-MS system consisting of a Nexera X2 UHPLC system with two UHPLC pumps (Shimadzu, ’s Hertogenbosch, The Netherlands) connected to a TSQ Quantum Ultra (Thermo Fisher Scientific, Breda, The Netherlands). Separation of 15a was accomplished in a Gemini 3 µm C18 reversed phase HPLC column (50 × 4.6 mm) (Phenomenex, Amstelveen, The Netherlands) using an injection volume of 10 µL and a flow rate of 0.6 ml/min at 40 °C. After elution of 15a with a 9:11 (v/v) ratio of acetonitrile in water with 0.1% TFA, the column was flushed with a gradient up to 90% acetonitrile with 0.1% TFA. The column was re-equilibrated with a 9:11 (v/v) ratio of acetonitrile in water with 0.1% TFA before the next injection. […] The collision energy used was 26 V at a skimmer offset of 16 V, the scan peak width was 0.5 m/z, while the scan time was 0.3 seconds. Sheath gas and auxiliary gas pressure (Nitrogen) were set to 60 and 5 respectively (arbitrary units), and the collision gas Argon was set at 1.0 atm.
To determine the maximal value of k off that would prolong the receptor occupancy even further, we used equation (2)[28], in which BF represents the percentage of target occupancy divided by 100 and t 1/2el represents the plasma elimination half-life (0.693/k el). In this case we set BF to 0.90, as 90% represents the minimum value of target occupancy to achieve efficacy. To obtain the elimination rate constant of compound 15a, a linear regression analysis of the natural logarithm of the concentrations versus time was performed, and the slope coefficient was used as the elimination rate constant k el.2 koff<0.693⋅(1−BF)/t1/2el

With CC(C)[C@]1(C(=O)N2CCc3ccc(C(F)(F)F)cc3C2)CC[C@@H](N[C@@H]2CCc3cc(Br)ccc32)C1 [15a, ((1S,3R)-3-(((R)-5-bromo-2,3-dihydro-1H-inden-1-yl)amino)-1-isopropylcyclopentyl)(7-(trifluoromethyl)-3,4-dihydroisoquinolin-2(1H)-yl)methanone] the body weight ([1]; 5 mg/kg/day i.p., four weeks) was “not significantly affected”, the body weight gain ([1]; 5 mg/kg/day i.p., four weeks) was “not affected” and the “plasma total cholesterol levels” value ([1]; 5 mg/kg/day i.p., four weeks) was “not significantly affected”. The “liver mRNA levels of AST” value ([1]; P = 0.02) was “somewhat decreased”, the “liver mRNA expression of the toxicity markers ALT, apoH and GC” value ([1]; mouse, in vivo) was “did not affect” and the “plasma CCL2 levels” value ([1]; mouse, in vivo) was “increased”. For the same molecule, the “plasma IL-6 levels” value ([1]; mouse, in vivo) was “remained unaffected”, the liver morphology ([1]; versus controls) was “similar” and the k el ([2]; intraperitoneal, 5 mg/kg, slope of the linear regression of the pharmacokinetic data, read-out: k el (elimination rate constant) (converted)) was 1.8e-05 s⁻¹. It also gave a concentration at 1 h ([2]; ip, single intraperitoneal dose of 5 mg/kg, mice, range of individual mice, read-out: plasma levels 1 h after administration) of 12 to 1460 ng/mL, a concentration at 2 h ([2]; ip, single intraperitoneal dose of 5 mg/kg, mice, range of individual mice, read-out: plasma levels 2 h after dosing) of 613 to 1050 ng/mL and a concentration at 6 h ([2]; ip, single intraperitoneal dose of 5 mg/kg, mice, range of individual mice, read-out: plasma levels 6 h after administration) of 182 to 1020 ng/mL. The concentration at 24 h ([2]; ip, single intraperitoneal dose of 5 mg/kg, mice, range of individual mice, read-out: plasma levels 24 h after administration) was 32 to 331 ng/mL and the half-life ([2]; ip, single intraperitoneal dose of 5 mg/kg, mice, read-out: elimination half-life (converted)) was 10.7 h.
